Converted amounts (≈) assume the structure as drawn. Marks after values point to notes of the source that are not given here.
Key:
Format in all cases: physicochemical
[1] = Equilibrium solubility in pH buffers (pH 4.0-6.0) with pH adjustment; conditions: for S: solubility: RT, with pH adjustment
[2] = Equilibrium solubility in pH buffers (3.0-8.0), 20% captisol and water
[3] = DVS (dynamic vapor sorption) moisture uptake; conditions: for Moisture Uptake (DVS): 25° C., from 0% RH to 80% RH; for form change after DVS test (XRPD): XRPD before and after DVS
Method: (FIG. 5). Sample weight decreased rapidly when humidity decreased from 10% to 0%, which might be caused by loss of crystalline water.
DVS was measured via a SMS (Surface Measurement Systems) DVS Intrinsic.

[4] = Solubility of freeform in acetone/H2O systems with various water activities; conditions: for solubility at 2 days: thermodynamic from solid
Method: To measure the solubility of freeform in acetone/H2O systems with various water activities, the above experiments were re-performed with addition of aw=0.3 acetone/H2O system. The suspension sample was centrifuged to obtain precipitate and supernatants. Solubility was tested for the supernatants after filtration, and isolated precipitate was tested by XRPD.

[5] = Solution stability in citrate buffers; conditions: 28 days
Method: The stability samples were stored under 5° C. and 25° C. for 28 days, respectively. After 28 days storage, the stability samples were taken out for HPLC test and pH test.
Waters H-class UPLC (ultra-performance liquid chromatography) was used for purity, solubility, assay and stability test. Detailed method is shown in Table 9-22, Table 9-23 and Table 9-24.

[6] = Formulation development with NaCl; conditions: ~35 mg freeform Type D + ~9.6 mg citric acid + ~6.1 mg NaCl in water
Method: The concentration of freeform in the suspension was 0.60 mg/mL (pH 3.8). […] The experiment was redone, and a clear solution (a little cloudy) was obtained immediately after adding 1 mL water into ˜32 mg/mL API+9.6 mg/mL critic acid, solid precipitated out after addition of NaCl.

[7] = pH = 4.0 buffer (50 mM citrate)
[8] = pH = 5.0 buffer (50 mM citrate)
[9] = pH = 6.0 buffer (50 mM citrate)
[10] = pH = 6.0 buffer (50 mM phosphate)
[11] = 20% Captisol (pH = 5.0, w/v), 24 hrs
[12] = pH = 3.0 buffer (50 mM HCl + KCl), 24 hrs
[13] = pH = 5.0 buffer (50 mM citrate), 24 hrs
[14] = pH = 6.0 buffer (50 mM citrate), 24 hrs
[15] = pH = 7.0 buffer (50 mM phosphate), 24 hrs
[16] = pH = 8.0 buffer (50 mM phosphate), 24 hrs
[17] = ~1 mg/mL in 10 mM citrate buffer (pH 4.3), 5° C.
[18] = ~1 mg/mL in 10 mM citrate buffer (pH 4.3), 25° C.
[19] = ~40 mg/mL in 100 mM citrate buffer (pH 4.1), 5° C.
[20] = ~40 mg/mL in 100 mM citrate buffer (pH 4.1), 25° C.

CC(=O)NCC1CCN(Cc2cc(Oc3ccc(N4CCN(CCC(=O)O)CC4)nc3)nc(-c3cc(Cl)cc(Cl)c3)c2)CC1 [Freeform Type A]
form change after equilibrium in all media ([1]; all media, 24 hours): No form change | Area % (purity of supernatant) [1, 7]: 99.9 Area % | pH (final, after adjustment where adjusted) [1, 7]: 4.2* | pH before adjustment (in brackets) ([1]; pH = 4.0 buffer (50 mM citrate), 24 hours): (5.0) | S: solubility [1, 7]: >36.9^# mg/mL | Area % (purity of supernatant) [1, 8]: 99.6 Area % | FC: form change (XRPD of precipitate) [1, 8]: N (N: solid form not changed) | pH (final, after adjustment where adjusted) [1, 8]: 5.2 | S: solubility [1, 8]: 3.31 mg/mL | Area % (purity of supernatant) [1, 9]: 99.6 Area % | FC: form change (XRPD of precipitate) [1, 9]: N (N: solid form not changed) | pH (final, after adjustment where adjusted) [1, 9]: 6.0 | S: solubility [1, 9]: 0.15 mg/mL | Area % (purity of supernatant) [1, 10]: 99.3 Area % | FC: form change (XRPD of precipitate) [1, 10]: N (N: solid form not changed) | pH (final, after adjustment where adjusted) [1, 10]: 6.0 | S: solubility [1, 10]: 0.11 mg/mL | solubility at 24 h ([2]; 50 mM phosphate buffer, 21 °C, pH 8, aqueous buffer, thermodynamic from solid, pH = 8.0 buffer (50 mM phosphate), RT, 24 hrs, read-out: S: solubility): 20 µg/mL (≈ 31.2 µM) | FC: form change (XRPD of precipitate) [2, 11]: N (N: solid form not changed) | pH of supernatant (final pH) [2, 11]: 7.7 | S: solubility ([2]; 20% Captisol (pH = 5.0, w/v), RT, 24 hrs): 12.1 mg/mL | FC: form change (XRPD of precipitate) ([2]; H2O, 24 hrs): N (N: solid form not changed) | pH of supernatant (final pH) ([2]; H2O, 24 hrs): 6.8 | form change after equilibrium in all media ([2]; all media, 24 hours): No form change | FC: form change (XRPD of precipitate) [2, 12]: N (N: solid form not changed) | pH of supernatant (final pH) [2, 12]: 6.3 | S: solubility ([2]; pH = 3.0 buffer (50 mM HCl + KCl), RT, 24 hrs): 0.05 mg/mL | pH of supernatant (final pH) ([2]; pH = 4.0 buffer (50 mM citrate), 24 hrs): 4.8 | S: solubility ([2]; pH = 4.0 buffer (50 mM citrate), RT, 24 hrs): >17.9^# mg/mL | FC: form change (XRPD of precipitate) [2, 13]: N (N: solid form not changed) | pH of supernatant (final pH) [2, 13]: 5.2 | S: solubility ([2]; pH = 5.0 buffer (50 mM citrate), RT, 24 hrs): 3.31 mg/mL | FC: form change (XRPD of precipitate) [2, 14]: N (N: solid form not changed) | pH of supernatant (final pH) [2, 14]: 6.1 | S: solubility ([2]; pH = 6.0 buffer (50 mM citrate), RT, 24 hrs): 0.18 mg/mL | FC: form change (XRPD of precipitate) [2, 15]: N (N: solid form not changed) | pH of supernatant (final pH) [2, 15]: 7.1 | FC: form change (XRPD of precipitate) [2, 16]: N (N: solid form not changed) | pH of supernatant (final pH) [2, 16]: 8.0 | Moisture Uptake (DVS) [3]: 6.8% (from 0% RH to 80% RH) | form change after DVS test (XRPD) [3]: No form change | solubility ([4]; Acetone/H2O (605:395), aw 0.8, RT): 10.265 (Type A) mg/mL | solubility at 2 days ([4]; acetone/H2O (605:395), aw 0.8, organic solvent or mixture, Acetone/H2O (605:395), aw 0.8, RT): 10300 µg/mL (≈ 16100 µM) | solubility at 2 days ([4]; acetone/H2O (858:142), aw 0.6, organic solvent or mixture, Acetone/H2O (858:142), aw 0.6, RT): 3290 µg/mL (≈ 5120 µM) | solubility at 2 days ([4]; acetone/H2O (950:50), aw 0.4, organic solvent or mixture, Acetone/H2O (950:50), aw 0.4, RT): 1160 µg/mL (≈ 1800 µM) | solubility at 2 days ([4]; acetone/H2O (973:27), aw 0.3, organic solvent or mixture, Acetone/H2O (973:27), aw 0.3, RT): 1440 µg/mL (≈ 2240 µM) | solubility at 2 days ([4]; water (aw 1), water, H2O, aw 1, RT): 10 µg/mL (≈ 15.6 µM)

CC(=O)NCC1CCN(Cc2cc(Oc3ccc(N4CCN(CCC(=O)O)CC4)nc3)nc(-c3cc(Cl)cc(Cl)c3)c2)CC1 [Freeform Type D]
degradation ([5]; 40 mg/mL in 100 mM citrate buffer, 5° C. and 25° C.): No significant degradation | Appearance [5, 17]: yellow solution | Assay [5, 17]: 68.4% | Purity [5, 17]: 89.0 Area % | pH [5, 17]: 4.7 | Appearance [5, 18]: cloudy and yellow | Assay [5, 18]: 11.6% | Purity [5, 18]: 78.9 Area % | pH [5, 18]: 4.6 | Appearance [5, 19]: became cloudy | Assay [5, 19]: 95.0% | Purity [5, 19]: 99.7 Area % | pH [5, 19]: 4.8 | Appearance [5, 20]: remained a clear solution | Assay [5, 20]: 98.9% | Purity [5, 20]: 99.5 Area % | pH [5, 20]: 4.9 | pH ([6]; 24 hours): 3.8 | concentration of freeform in the suspension ([6]; 24 hours stirring): 600 µg/mL | Moisture Uptake (DVS) [3]: 6.3% (from 0% RH to 80% RH) | form change after DVS test (XRPD) [3]: No form change
